These results are taken from patent publication US8476295B2, “Bridged bicyclic RHO kinase inhibitor compounds, composition and use” (Inspire, priority 2009, dated 2013).

pKi: −log10 of the molar value. Where two headings read alike, the source gives them in different places.

The target of test [1] is Rho kinase 2 (Homo sapiens (Human), UniProt O75116). Description: Rho Kinase Inhibition Assay (IMAP fluorescence polarization), Rho kinase 2. The following applies: isolated enzyme, 10 μM ATP, 60 minutes at room temperature. Type of test: biochemical.
Test [2] concerns the target Rho kinase 1 (Homo sapiens (Human), UniProt Q13464). The test is described as follows: biochemical.
Setting [3] is: Rho kinase 1 Ki, isolated enzyme, 10 μM ATP, 60 minutes at room temperature.

Chain of Rho kinase 2 (O75116 11-552): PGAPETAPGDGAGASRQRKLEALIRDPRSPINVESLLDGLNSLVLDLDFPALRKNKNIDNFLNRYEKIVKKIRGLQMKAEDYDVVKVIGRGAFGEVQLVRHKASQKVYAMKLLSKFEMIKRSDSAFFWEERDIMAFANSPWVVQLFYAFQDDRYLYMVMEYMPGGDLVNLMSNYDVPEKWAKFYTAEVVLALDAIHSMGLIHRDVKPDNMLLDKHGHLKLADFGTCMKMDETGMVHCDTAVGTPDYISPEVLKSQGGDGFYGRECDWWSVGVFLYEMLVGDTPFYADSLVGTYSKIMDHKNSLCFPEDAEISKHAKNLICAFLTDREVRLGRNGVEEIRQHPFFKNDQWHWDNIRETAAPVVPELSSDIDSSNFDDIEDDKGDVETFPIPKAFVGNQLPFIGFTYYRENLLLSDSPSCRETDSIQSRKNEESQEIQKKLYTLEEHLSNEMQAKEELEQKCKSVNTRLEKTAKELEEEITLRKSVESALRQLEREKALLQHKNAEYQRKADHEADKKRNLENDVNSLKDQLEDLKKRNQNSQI
Chain of Rho kinase 1 (Q13464 17-535): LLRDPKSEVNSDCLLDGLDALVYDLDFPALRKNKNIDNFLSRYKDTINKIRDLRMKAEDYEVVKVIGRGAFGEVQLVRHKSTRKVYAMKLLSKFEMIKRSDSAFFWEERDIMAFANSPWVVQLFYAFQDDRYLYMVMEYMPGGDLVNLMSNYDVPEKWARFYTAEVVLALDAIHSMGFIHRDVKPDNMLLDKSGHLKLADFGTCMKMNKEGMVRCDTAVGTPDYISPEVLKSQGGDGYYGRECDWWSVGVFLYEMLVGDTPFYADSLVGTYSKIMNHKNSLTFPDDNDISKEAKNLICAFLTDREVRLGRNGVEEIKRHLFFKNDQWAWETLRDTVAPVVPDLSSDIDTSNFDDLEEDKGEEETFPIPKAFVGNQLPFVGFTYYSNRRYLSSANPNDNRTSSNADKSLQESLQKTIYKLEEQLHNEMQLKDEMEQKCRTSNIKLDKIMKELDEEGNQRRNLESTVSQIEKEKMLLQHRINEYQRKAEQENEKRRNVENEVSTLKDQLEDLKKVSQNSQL

As to `c1ccc(CN2C3CCC2CC(Nc2ccc4[nH]ncc4c2)C3)cc1` (single isomer, unassigned) [Compound 2.1.01, N-((1RS,3sr,5SR)-8-benzyl-8-azabicyclo[3.2.1]octan-3-yl)-1H-indazol-5-amine], the pKi is 6.66 in test [1] (Rho kinase 2 Ki) and 6.09 in test [2] (setting [3]).

In the case of `Cc1ccc(CN2C3CCC2CC(Nc2ccc4[nH]ncc4c2)C3)cc1` (stereo not drawn) [Compound 1.1.02, N-((1RS,3rs,5SR)-8-(4-methylbenzyl)-8-azabicyclo[3.2.1]octan-3-yl)-1H-indazol-5-amine], the pKi in test [1] (Rho kinase 2 Ki) was 7.70; in test [2] (setting [3]), 7.04. As for `c1ccc(CN2C[C@@H]3CC[C@H]2[C@@H]3Nc2ccc3[nH]ncc3c2)cc1` (racemic) [Compound 3.1.01, N-((1SR,4SR,7RS)-2-benzyl-2-azabicyclo[2.2.1]heptan-7-yl)-1H-indazol-5-amine], the pKi in test [1] (read-out: Rho kinase 2 Ki) was 6.33; in test [2], 6.01.

For the molecule `Cc1ccc(CN2C3CCC2CC(Nc2ccc4[nH]ncc4c2)C3)cc1OCCO` (stereo not drawn) [Compound 1.1.04, 2-(5-(((1RS,3rs,5SR)-3-((1H-indazol-5-yl)amino)-8-azabicyclo[3.2.1]octan-8-yl)methyl)-2-methylphenoxy)ethanol], the figures for the pKi in test [1] (Rho kinase 2 Ki) and in test [2] (setting [3]) were 8.00 and 7.46, respectively. `OCCOc1cccc(CN2C3CCC2CC(Nc2ccc4[nH]ncc4c2)C3)c1` (stereo not drawn) [Compound 1.1.03, 2-(3-(((1RS,3rs,5SR)-3-((1H-indazol-5-yl)amino)-8-azabicyclo[3.2.1]octan-8-yl)methyl)phenoxy)ethanol]: in test [1] (Rho kinase 2 Ki), the negative-log Ki (pKi) is 7.68. As to `c1ccc(CN2C3CCC2CC(Nc2ccc4[nH]ncc4c2)C3)cc1` (single isomer, unassigned) [Compound 1.1.01, N-((1RS,3rs,5SR)-8-benzyl-8-azabicyclo[3.2.1]octan-3-yl)-1H-indazol-5-amine], the pKi is 7.54 in test [1] (Rho kinase 2 Ki) and 7.14 in test [2] (setting [3]).
